Data reported in patent US20240417689A1, “ENGINEERING OF STRATIFIED CELL SHEETS USING MESENCHYMAL STEM CELLS” (Emmaus Life Sciences, Inc, priority 2021, published 2024).
“Also recorded” adds a separate entry of the source.

Columns and labels:
adipose stromal cells [1] = test: Chondrogenic differentiation of stem cells in differentiation medium supplemented with ROCK inhibitor; format: cell-based, human; conditions: for Induction of stem cell differentiation: differentiation medium supplemented with ROCK inhibitor; for Cell differentiation noticed / started, time after initial treatment with ROCK inhibitor: MesenCult-ACF Chondrogenic Differentiation medium supplemented with ROCK inhibitor, dose dependent
Method: (§1) Chondrocyte Cell Sheet: ASC were cultured with RoosterNourish™-MSC-XF, until the cells reached confluence. From that day, ASC were cultured with MesenCult™-ACF Chondrogenic Differentiation Kit (Stem Cell, Vancouver, Canada). The culture media was replaced every 2 days, up to X days from the initial seeding day depending on the technique used to engineer the cell sheet.
(§2) One of two techniques was used to complete the engineering process: 1) To stop centrifuge tension, the edges of the cell sheets were cut, and the cell sheet was left resting in almost absence of culture media (MesenCult™-ACF Chondrogenic Differentiation) to let the cell sheets' edges attached to the cell culture surface, for 20 minutes. The differentiation culture media (MesenCult™-ACF Chondrogenic Differentiation) was added to the cell culture dish and the chondrocyte cell sheet was engineered up to 21 days after the initial day of differentiation. 2) ROCK inhibitor Y-27632 at 10 μM or ROCK inhibitor Y-33075 at 1 μM were used from the first day of differentiation.

adipose stromal cells [2] = test: Toxicity of ROCK inhibitor for the cells during differentiation; format: cell-based; conditions: dose response
adipose stromal cells [3] = test: Engineering of chondrocyte cell sheets with ROCK inhibitor (detachment, time of formation); format: cell-based, human; conditions: for Success in engineering the chondrocyte multilayer cell sheets: ROCK 1 and 2 inhibitors; for Detachment of the cell sheets / Time in which cell sheets were formed: Y-27632 at 10 μM or Y-33075 at 1 μM from the first day of differentiation; for Reduction of the time of differentiation: Y-27632 at 10 μM or Y-33075 at 1 μM, versus 21 days with edge cutting
Method: as §1, §2
Undifferentiated ASCCS were engineered in 10 days, using a chemically defined culture media. Differentiated ASCCS into Chondrocyte (treated with ROCK inhibitor from 1 to 20 μM), […] and osteoblast were also engineered using chemically defined and animal free culture media, in 14, 21 and 14 days, respectively. The transmittance of the ASCCS were measured over time from the time the cells reached confluence until the cell sheets were harvested.

Structure (SMILES): CC(C)NC(=O)COc1cccc(-c2nc(Nc3ccc4[nH]ncc4c3)c3ccccc3n2)c1 [Belumosudil, 2-[3-[4-(1H-Indazol-5-ylamino)quinazolin-2-yl]phenoxy]-N-propan-2-ylacetamide]
- Induction of stem cell differentiation (adipose stromal cells [1]): failed to induce stem cell differentiation; also recorded: does not induce cell differentiation
- Toxicity for the cells (adipose stromal cells [2]): toxic for the cells in a dose response, inducing cell death

Structure (SMILES): C[C@@H](N)[C@H]1CC[C@H](C(=O)Nc2ccncc2)CC1 [Y-27632, (1R,4r)-4-((R)-1-aminoethyl)-N-(pyridin-4-yl)cyclohexane-1-carboxamide]
- Cell differentiation noticed / started, time after initial treatment with ROCK inhibitor (adipose stromal cells [1]): 2 days
- Success in engineering the chondrocyte multilayer cell sheets (adipose stromal cells [3]): used with success
- Detachment of the cell sheets (adipose stromal cells [3]): didn't detach
- Time in which cell sheets were formed (adipose stromal cells [3]): 2 weeks
- Reduction of the time of differentiation (adipose stromal cells [3]): 33%

Structure (SMILES): Cc1cncc2cccc(S(=O)(=O)N3CCCNC[C@@H]3C)c12 [H-1152, (S)-4-methyl-5-((2-methyl-1,4-diazepan-1-yl)sulfonyl)isoquinoline]
- Cell differentiation noticed / started, time after initial treatment with ROCK inhibitor (adipose stromal cells [1]): 2 days
- Induction of stem cell differentiation (adipose stromal cells [1]): induced the cell differentiation but it is less efficient than Y-27632 and Y-33075

Structure (SMILES): C[C@@H](N)c1ccc(C(=O)Nc2ccnc3[nH]ccc23)cc1 [Y-33075, (R)-4-(1-aminoethyl)-N-(1H-pyrrolo[2,3-b]pyridin-4-yl)benzamide]
- Cell differentiation noticed / started, time after initial treatment with ROCK inhibitor (adipose stromal cells [1]): 1 days
- Success in engineering the chondrocyte multilayer cell sheets (adipose stromal cells [3]): used with success
- Detachment of the cell sheets (adipose stromal cells [3]): didn't detach
- Time in which cell sheets were formed (adipose stromal cells [3]): 2 weeks
- Reduction of the time of differentiation (adipose stromal cells [3]): 33%
